# Test results as given in patent US20250368633A1, “AZEPINE FUSED RING COMPOUND AS RIPK1 INHIBITOR AND USE THEREOF” (ARTIVILA BIOPHARMA, priority 2022, published 2025).
# Assays:
# RIPK1 kinase = molecular target: T1, RIPK1 kinase (Homo sapiens, UniProt Q13546); assay: In vitro RIPK1 kinase activity assay (ADP-Glo), inhibition by compounds at 1 μM; type: biochemical; details: compound 1 μM; ATP 10 μM; MBP substrate 100 μg/mL; read-out: RIPK1 kinase activity inhibition rate range
# T1 construct: purchased Promega VA7593
# T1 sequence (Q13546 1-671): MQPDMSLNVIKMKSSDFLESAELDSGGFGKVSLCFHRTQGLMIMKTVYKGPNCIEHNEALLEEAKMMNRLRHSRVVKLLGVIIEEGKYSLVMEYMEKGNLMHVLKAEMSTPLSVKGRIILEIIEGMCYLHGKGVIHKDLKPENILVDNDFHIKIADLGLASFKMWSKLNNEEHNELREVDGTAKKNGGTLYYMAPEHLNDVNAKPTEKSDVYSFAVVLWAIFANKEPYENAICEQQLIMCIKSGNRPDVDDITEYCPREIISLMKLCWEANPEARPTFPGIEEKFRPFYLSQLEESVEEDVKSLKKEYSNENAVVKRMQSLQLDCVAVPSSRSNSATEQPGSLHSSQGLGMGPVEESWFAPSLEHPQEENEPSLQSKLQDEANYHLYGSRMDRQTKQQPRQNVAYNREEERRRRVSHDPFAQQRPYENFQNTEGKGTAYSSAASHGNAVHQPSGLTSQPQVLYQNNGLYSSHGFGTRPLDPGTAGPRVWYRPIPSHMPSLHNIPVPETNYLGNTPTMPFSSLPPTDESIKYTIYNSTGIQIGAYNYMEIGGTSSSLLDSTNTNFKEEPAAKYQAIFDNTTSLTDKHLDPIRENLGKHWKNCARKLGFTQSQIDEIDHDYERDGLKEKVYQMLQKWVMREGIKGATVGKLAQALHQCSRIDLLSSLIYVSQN
# Experimental: RIPK1 kinase activity was assayed using the ADP-Glo assay and RIPK1 kinase reaction system (Promega, catalog number: VA7593). The RIPK1 kinase activity assay was performed according to the Promega kit manual.
# The experimental method was briefly described as below. The concentration of RIPK1 kinase in the RIPK1 kinase reaction system was determined by kinase titration and S/B10. Compounds were diluted with 1× kinase buffer D (1% DMSO), and 1 μL of 100 μM compound DMSO stock solution was added to 19 μL 1× kinase buffer D. RIPK1 kinase was diluted with 1× kinase buffer D. 2.5×ATP/substrate was diluted with 1× kinase buffer D. The final concentration of ATP in the kinase reaction system was 10 μM, and the final concentration of MBP substrate was 100 μg/mL. 1 μL of diluted compound and 2 μL of diluted RIPK1 kinase were mixed, incubated at room temperature for 15 minutes, 2 μL of 2.5×ATP/substrate was added, mixed, and incubated at room temperature for 1 hour. 5 μL of ADP-Glo reagent was added to each well and incubated at room temperature for 1 hour. 10 μL of ADP detection reagent was added to each well and incubated at room temperature for another 0.5-1 hour. The chemiluminescent signal was read by a microplate reader and the inhibition rate of kinase activity was calculated.
# U937 cells [1] = assay: Inhibition rate of compound (1 μM) on necroptosis of U937 cells (TSZ-induced, CellTiter-Glo); type: cell-based; details: TSZ (hTNF-α, SM-164, Z-VAD-FMK) 20 hours
# Experimental: (§1) The biological activity of RIPK1 inhibitors was further evaluated in the inhibition of necroptosis in U937 cells. U937 cell line was purchased from Huatuo Biotechnology and stored in liquid nitrogen. U937 cells were revived before the experiment and cultured in RPMI-1640 medium (supplemented with 10% fetal bovine serum, 100 U/mL penicillin and 100 μg/mL streptomycin) at 37° C., 5% CO2. The activity was further evaluated by the cellular ATP level detected by the Promega CellTiter-Glo 2.0 Assay cell viability assay kit (Catalog No.: G9242).
# The experimental method was briefly described as below. U937 cells in the logarithmic growth phase were collected by centrifugation. Cells were diluted at the density of 5×10^5 cells/mL with RPMI 1640 medium (supplemented with 10% fetal bovine serum, 100 U/mL penicillin and 100 μg/mL streptomycin). The cell suspension was added to a white sterile 384-well cell culture plate at 15 μL/well. The test compound was dissolved in DMSO to prepare a 10 mM stock solution and diluted to 10 μM with culture medium. At the same time, a control with the same DMSO volume was set up. Two replicates were added for each concentration. The diluted compound was added to the 384-well cell culture plate containing cells at 2.5 µL/well and incubated at 37° C., 5% CO2 for 15 minutes. Z-VAD-FMK (Biyuntian, catalog number: C1202-5 mg) was dissolved in DMSO to prepare a 20 mM stock solution. SM-164 (Biyuntian, catalog number: SC0114-10 mM) was dissolved in DMSO to prepare a 10 mM stock solution and diluted to 0.1 mM. hTNF-α (Sino Biological Inc., catalog number: 10602-HNAE) was dissolved in sterile water to 10 μg/mL. RPMI 1640 medium (supplemented with 10% fetal bovine serum, 100 U/mL penicillin and 100 μg/mL streptomycin) was used to prepare the TSZ mixture, containing 133.3 μM Z-VAD-FMK, 33.3 ng/ml hTNF-α and 0.3 μM SM-164. After 15 minutes' coculture of compounds and cells, 7.5 μL of TSZ mixture was added to each well, mixed evenly, and cultured at 37° C., 5% CO2 for 20 hours. After 20 hours, the culture plate was removed and placed at room temperature for 30 minutes. 10 μL of CellTiter-Glo reagent pre-equilibrated at room temperature was added to each well and incubated for 10 minutes from light. The chemiluminescence was read by a microplate reader. The inhibition rate was calculated as Inh %=(1−(no TSZ-TSZ & compound)/(no TSZ-TSZ))×100.
# U937 cells [2] = assay: EC50 of necroptosis inhibition in U937 cells (TSZ-induced, CellTiter-Glo); type: cell-based; details: Homo sapiens, U-937; TSZ (hTNF-α, SM-164, Z-VAD-FMK) 20 hours; 10 concentration points; read-out: EC50 intervals of necroptosis inhibition in U937 cells
# Experimental: as §1
# The experimental method was briefly described as below. U937 cells in the logarithmic growth phase were collected by centrifugation. Cells were diluted to the cell density of 5×10^5 cells/mL with RPMI 1640 medium (supplemented with 10% fetal bovine serum, 100 U/mL penicillin and 100 μg/mL streptomycin). Cell suspension was added to a white sterile 384-well cell culture plate at 15 μL/well. The test compound was dissolved in DMSO to prepare a 10 mM stock solution. The compound was serially diluted with culture medium at a ratio of 1:3, for a total of 10 concentration points. A control with the same DMSO volume was set, with two replicates for each concentration. The diluted compound was added to the 384-well cell culture plate containing cells at 2.5 μL/well and incubated at 37° C., 5% CO2 for 15 minutes. Z-VAD-FMK (Biyuntian, catalog number: C1202-5 mg) was dissolved in DMSO to prepare a 20 mM stock solution. SM-164 (Biyuntian, catalog number: SC0114-10 mM) was dissolved in DMSO to prepare a 10 mM stock solution and diluted to 0.1 mM. hTNF-α (Sino Biological Inc., catalog number: 10602-HNAE) was dissolved in sterile water to 10 μg/mL. RPMI 1640 medium (supplemented with 10% fetal bovine serum, 100 U/mL penicillin and 100 μg/mL streptomycin) was used to prepare the TSZ mixture, containing 133.3 μM Z-VAD-FMK, 33.3 ng/ml hTNF-α and 0.3 μM SM-164. After 15 minutes' coculture of compounds and cells, 7.5 μL of TSZ mixture was added to each well, mixed evenly, and cultured at 37° C., 5% CO2 for 20 hours. After 20 hours, the culture plate was removed and placed at room temperature for 30 minutes. Then, 10 μL of CellTiter-Glo reagent pre-equilibrated at room temperature was added to each well and incubated. After 10 minutes' incubation at room temperature in the dark, the chemiluminescence were measured using a microplate reader. The inhibition rate was calculated as Inh %=(1−(no TSZ-TSZ & compound)/(no TSZ-TSZ))×100. The EC50 was obtained by fitting the nonlinear regression curve log [inhibitor] vs. response−variable slope (four parameters) in GraphPad Prism.
Structure (SMILES),inhibition at 1 µM (RIPK1 kinase) [%],Inhibition rate range of compounds (1 μM) on U937 cell necroptosis (U937 cells [1]),EC50 (U937 cells [2]) [µM]
"C[C@@H](NC(=O)C(=O)N[C@H]1COc2ccc(C#CCN3CCN(CCOCCOCCOCCC(=O)Nc4cccc5c4CN(C4CCC(=O)NC4=O)C5=O)CC3)cc2N(C)C1=O)c1ccccc1 (mixture of isomers) [Example 164, N^1-((3S)-7-(3-(4-(2-(2-(2-(3-((2-(2,6-dioxopiperidin-3-yl)-1-oxoisoindolin-4-yl)amino)-3-oxopropoxy)ethoxy)ethoxy)ethyl)piperazin-1-yl)prop-1-yn-1-yl)-5-methyl-4-oxo-2,3,4,5-tetrahydrobenzo[b][1,4]oxazepin-3-yl)-N^2-((R)-1-phenylethyl)oxalamide]",≥ 75,A (A: ≥90%),0.1 to 0.5
"CN1C(=O)[C@@H](NC(=O)C(=O)NCCc2ccccc2)COc2ccc(Br)cc21 [Example 1, (S)—N^1-(7-bromo-5-methyl-4-oxo-2,3,4,5-tetrahydrobenzo[b][1,4]oxazepin-3-yl)-N^2-phenethyloxalamide]",50 to 74,A (A: ≥90%),0.1 to 0.5
"CN1C(=O)[C@@H](NC(=O)C(=O)NCCc2ccccc2)COc2ccc(C#CC3CC3)cc21 [Example 2, (S)—N^1-(7-(cyclopropylethynyl)-5-methyl-4-oxo-2,3,4,5-tetrahydrobenzo[b][1,4]oxazepin-3-yl)-N^2-phenethyloxalamide]",≥ 75,A (A: ≥90%),< 0.1
"CN1C(=O)[C@@H](NC(=O)C(=O)NCCc2ccccc2)COc2cc(Br)ccc21 [Example 3, (S)—N^1-(8-bromo-5-methyl-4-oxo-2,3,4,5-tetrahydrobenzo[b][1,4]oxazepin-3-yl)-N^2-phenethyloxalamide]",≥ 75,A (A: ≥90%),0.5 to 2
"CN1C(=O)[C@@H](NC(=O)C(=O)NCCc2ccccc2)COc2cc(O)ccc21 [Example 5, (S)—N^1-(8-hydroxy-5-methyl-4-oxo-2,3,4,5-tetrahydrobenzo[b][1,4]oxazepin-3-yl)-N^2-phenethyloxalamide]",≥ 75,A (A: ≥90%),0.1 to 0.5
"CN1C(=O)[C@@H](NC(=O)C(=O)NCCc2ccccc2)COc2ccc(O)cc21 [Example 6, (S)—N^1-(7-hydroxy-5-methyl-4-oxo-2,3,4,5-tetrahydrobenzo[b][1,4]oxazepin-3-yl)-N^2-phenethyloxalamide]",50 to 74,A (A: ≥90%),0.1 to 0.5
"COc1ccc2c(c1)N(C)C(=O)[C@@H](NC(=O)C(=O)NCCc1ccccc1)CO2 [Example 8, (S)—N^1-(7-methoxy-5-methyl-4-oxo-2,3,4,5-tetrahydrobenzo[b][1,4]oxazepin-3-yl)-N^2-phenethyloxalamide]",≥ 75,A (A: ≥90%),0.1 to 0.5
"C=CCOc1ccc2c(c1)N(C)C(=O)[C@@H](NC(=O)C(=O)NCCc1ccccc1)CO2 [Example 9, (S)—N^1-(7-(allyloxy)-5-methyl-4-oxo-2,3,4,5-tetrahydrobenzo[b][1,4]oxazepin-3-yl)-N^2-phenethyl oxalamide]",≥ 75,A (A: ≥90%),0.1 to 0.5
"C#CCOc1ccc2c(c1)N(C)C(=O)[C@@H](NC(=O)C(=O)NCCc1ccccc1)CO2 [Example 10, (S)—N^1-(5-methyl-4-oxo-7-(prop-2-yn-1-yloxy)-2,3,4,5-tetrahydrobenzo[b][1,4]oxazepin-3-yl)-N^2-phenethyloxalamide]",≥ 75,A (A: ≥90%),0.1 to 0.5
"Cc1cccc(/C=C/c2ccc3c(c2)N(C)C(=O)[C@@H](NC(=O)C(=O)NCCc2ccccc2)CO3)c1 [Example 11, (S,E)-N^1-(5-methyl-7-(3-methylstyryl)-4-oxo-2,3,4,5-tetrahydrobenzo[b][1,4]oxazepin-3-yl)-N^2-phenethyloxalamide]",≥ 75,A (A: ≥90%),< 0.1
"CN1C(=O)[C@@H](NC(=O)C(=O)NCCc2ccccc2F)COc2ccccc21 [Example 99, (S)—N^1-(2-fluorophenethyl)-N^2-(5-methyl-4-oxo-2,3,4,5-tetrahydrobenzo[b][1,4]oxazepin-3-yl)oxalamide]",50 to 74,B (B: 50-89%),
"CN1C(=O)[C@@H](NC(=O)C(=O)NCCOc2ccccc2)COc2ccccc21 [Example 103, (S)—N^1-(5-methyl-4-oxo-2,3,4,5-tetrahydrobenzo[b][1,4]oxazepin-3-yl)-N^2-(2-phenoxyethyl)oxalamide]",25 to 49,,0.5 to 2
